Columns and labels:
[1] = target: T1, protein of the present invention having ceramide kinase activity (hCERK1) (Homo sapiens, UniProt Q8TCT0); test: Measurement of ceramide kinase activity, lysate of HEK293 cells transfected with pCR3.1-CERK1, [32P]-γ-ATP, TLC; assay type: biochemical; details: for Phosphorylation by the protein of the present invention (in words): optimum assay conditions for ceramide kinase; for Ratio of activities (pCR3.1-CERK1/pCR3.1) / Phosphorylation activity, Transformed with pCR3.1-CERK 1: substance used as substrate; for Phosphorylation activity, Transformed with pCR3.1-CERK 1: HEK293 cell lysate, [32P]-γ-ATP, 37° C. 20 minutes, pH 7.0, natural ceramide micellized with octyl glucoside; for Effect on ceramide kinase activity (activated / inhibited): C6-ceramide as substrate, examination of optimum assay conditions
T1 construct: expressed in transfected cells; host or cells: HEK293 (ATCC CRL-1573), transient transfection with pCR3.1-CERK1; sonicated cell lysate
T1 sequence (Q8TCT0 1-537): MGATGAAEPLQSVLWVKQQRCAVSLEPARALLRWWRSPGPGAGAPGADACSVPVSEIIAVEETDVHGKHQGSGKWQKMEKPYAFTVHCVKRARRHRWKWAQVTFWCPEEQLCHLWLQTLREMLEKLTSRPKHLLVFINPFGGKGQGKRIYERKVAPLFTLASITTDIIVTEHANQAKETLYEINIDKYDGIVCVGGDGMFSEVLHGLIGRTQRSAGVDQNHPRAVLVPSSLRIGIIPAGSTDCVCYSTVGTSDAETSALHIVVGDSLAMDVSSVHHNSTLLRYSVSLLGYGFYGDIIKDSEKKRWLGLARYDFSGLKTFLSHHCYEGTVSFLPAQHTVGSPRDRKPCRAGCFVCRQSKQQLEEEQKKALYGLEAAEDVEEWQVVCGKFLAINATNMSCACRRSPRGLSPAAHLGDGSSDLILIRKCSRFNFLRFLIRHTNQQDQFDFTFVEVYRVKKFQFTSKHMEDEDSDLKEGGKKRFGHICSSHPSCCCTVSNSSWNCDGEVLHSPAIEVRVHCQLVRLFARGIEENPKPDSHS
Method: Specifically, the solution containing the protein, HEPES buffer solution (pH 7.0) containing magnesium chloride, EDTA, dithiothreitol, sodium vanadate, and protease inhibitor (for example, Complete (trademark), manufactured by Boehringer Manheim), C6 ceramide dissolved in a substrate (bovine serum albumin (hereinafter referred to as “BSA”)) solution having a concentration of 4 mg/ml or ceramide micellized by using octyl glucoside (a preparation purified from bovine fetal brain, manufactured by Sigma), and radio-labeled ^32P-ATP are mixed and incubated at 37° C. to perform a ceramide kinase reaction. Then, the reaction is stopped by adding 1N hydrochloric acid thereto and chloroform:methanol:concentrated hydrochloric acid (100:200: 1 v/v) is added thereto and extracted. The resultant lower layer (chloroform phase) is developed on thin layer chromatography (hereinafter referred to as “TLC”), and analyzed. The ceramide kinase activity can be determined by quantifying the spot in said TLC corresponded to ceramide-1-phosphate (hereinafter referred to as “Cer-1-P”) which is a product.
(§1) That is, after putting 6×10^5 HEK293 cells per well into a polylysine-coated 6-well plate for tissue culture (manufactured by Iwaki Glass) and incubating at 37° C. for 24 hours, they were transfected with one μg of pCR3.1-CERK 1 by using a transfection reagent (Lipofectamin plus, manufactured by Life technology) according to the directions attached thereto. After the operation for the transfection was finished, cells were cultured at 37° C. for one day and the conditioned medium was removed. Then, the cells were collected by using buffer solution A (10% glycerol, 1 mM dithiothreitol, 1 mM EDTA, 1 mM sodium vanadate, protease inhibitor (Complete™, manufactured by Boeheringer Mannheim), a 200 mM Hepes buffer solution, pH 7.0). By ultrasonication with a probe-type sonicater (Cell Disrupter 200, manufactured by Branson), the collected cells were broken into pieces, and the resulting cell lysate was diluted and then used for measurement of enzyme activity as shown in Example 3.
(§2) Specifically, 10 μl of 1 mM C6-ceramide prepared by using BSA solution (4 mg/ml) and 10 μl of a mixture of 100 mM magnesium chloride and 2 mM of radiolabeled [^32P]-gamma-ATP (manufactured by NEN) were added to 180 μl of buffer B [1 mM dithiothreitol, 1 mM EDTA, 1 mM sodium vanadate, protease inhibitor (Complete™, manufactured by Boeheringer Mannheim), 1 mM calcium chloride, a 200 mM HEPES buffer solution, pH 7.0] which further contains the protein of the present invention prepared in Example 2, and then incubated at 37° C. for 20 minutes to conduct the ceramide kinase reaction. Next, after stopping the reaction by adding 20 μl of 1 N hydrochloric acid, 800 μl (100:200:1, v/v) of chloroform:methanol:concentrated hydrochloric acid, 250 μl of 2.5 M potassium chloride, and 250 μl of chloroform were added thereto and extracted. The resulting extract was subjected to centrifugation at 2000×g, and the obtained lower layer (chloroform phase) was developed and analyzed on TLC.
That is, a necessary amount of ceramide dissolved in chloroform was dried to be solid under a nitrogen air current, and the buffer solution B which contains 0.2% of octyl glucoside was added thereto, and then subjected to ultrasonication, and finally 100 μM ceramide solution was provided. 90 μl of the mixture of buffer solution B containing the enzyme solution and 10 μl of the mixture consisting of 100 mM magnesium chloride and 2 mM radio-labeled [^32P]-γ-ATP were added to 100 μl of said substrate solution, and then incubated at 37° C. for 20 minutes to perform the ceramide kinase reaction. Extraction of Cer-1-P was conducted by a similar procedure to the above-mentioned.

[2] = test system: enzyme activity which HEK293 cell has endogenously; test: Phosphorylation activity of lysate of HEK293 cells transfected with only pCR3.1 vector (negative-reaction control); assay type: biochemical, human; details: substance used as substrate; lysate of HEK293 cells expressing only pCR3.1 vector
Method: as §1, with “In order to examine whether the protein of the present invention has ceramide kinase activity, the human embryo kidney cell HEK293 (ATCC CRL-1573) was transfected with the expression vector pCR3.1-CERK1 obtained above. That is,” for “That is,”, “Example 3. […]” for “Example 3.”
as §2, with “Next, after stopping the reaction by adding 20 μl of 1 N hydrochloric acid, 800 μl (100:200:1, v/v) of chloroform:methanol:concentrated hydrochloric acid, 250 μl of 2.5 M potassium chloride, and 250 μl of chloroform were added thereto and extracted.” left out, “TLC. […]” for “TLC.”

Compound	Phosphorylation by the protein of the present invention (in words) [1]	Ratio of activities (pCR3.1-CERK1/pCR3.1) [1]	Phosphorylation activity, Transformed with pCR3.1-CERK 1 [1] [pmol/min/mg]	Km ([1]; substrate C6-ceramide) [µM]	Phosphorylation activity, Transformed with pCR3.1 [2] [pmol/min/mg]	Effect on ceramide kinase activity (activated / inhibited) [1]
CCCCCCCCCCCCC/C=C/[C@@H](O)[C@H](CO)NC(=O)CCCCC [C6-ceramide, N-hexanoyl form of D-erythro-sphingosine]	high efficiency	183	1280	7	7	
CCCCCCCCCCCCC/C=C/[C@@H](O)[C@@H](N)CO [D-erythro-sphingosine]	hardly phosphorylated	1	50		50	
[Ca+2].[Cl-].[Cl-] [calcium chloride]						activated
C[C@H](CCC(=O)O)[C@H]1CC[C@H]2[C@@H]3[C@H](O)C[C@@H]4C[C@H](O)CC[C@]4(C)[C@H]3C[C@H](O)[C@]12C [cholic acid]						inhibited
[Cl-].[Cl-].[Mg+2] [magnesium chloride]						activated
Triton X-100						inhibited
diacylglycerol [DG]	hardly phosphorylated	1	150		130	
phosphatidylserine						inhibited

From patent US20030162206A1, “Ceramide kinase and DNA encoding it” (SANKYO COMPANY, LIMITED, priority 2000, published 2003)
